Experimental data taken from patent publication US9119396B2, “Method for promoting plant growth” (SUMITOMO CHEMICAL COMPANY, LIMITED, priority 2011, dated 2015).

What was measured:
Type in all cases: in vivo
[1] = system: Rice (cultivar: Nipponbare); experiment: Test Example 11: reduction of drought stress by treatment of rice seeds; conditions: rice seed treatment, 100 g per 100 kg of seeds; drought stress 2 days, then 14 days cultivation
Method: Evaluation Test for Reduction of Drought Stress by Treatment of Rice Seeds Rice (cultivar: Nipponbare) A blank slurry solution containing 5% (V/V) color coat red (Becker Underwood, Inc.), 5% (V/V) CF-Clear (Becker Underwood, Inc.) and 1% Maxim XL (Syngenta) was prepared. A slurry solution was prepared by dissolving the present compound 1 in the blank slurry solution such that 100 g of the compound is applied to each 100 kg of rice seeds. In a 50-ml centrifuge tube (manufactured by AGC TECHNO GLASS CO., LTD.), 0.3 ml of the slurry solution was placed for each 10 g of rice seeds and stirred until the solution was dried, thereby coating the seeds. In addition, seeds were coated with the blank slurry solution and used as seeds for a non-treated group. A filter paper was placed on the holes of a plug tray having 406 holes, and the rice seeds treated above were sown on the filter paper. […] Fourteen (14) days after the treatment, the fresh weight of the overground parts of five test plants in each treated group was measured. The experiment was performed in three replications in each treated group and the average value was calculated. […]

[2] = system: Rice (cultivar: Nipponbare); experiment: Test Example 1: promotion of root growth in hydroponics of rice; conditions: 1 ppm, 3 days germination + 3 days cultivation, average of 4 or 5 individuals
Method: Evaluation Test for Promotion of Root Growth in Hydroponics of Rice Rice (cultivar: Nipponbare) A 1/10,000 volume of each DMSO solution containing each of the present compounds 1 to 4 at 10,000 ppm was added to a Hoagland solution for hydroponics (Hoagland and Amon, California Agricultural Experiment Station 1950 Circular 347 pp. 34) at ¼ concentration to obtain a solution for hydroponics containing each of the present compounds 1 to 4 at 1 ppm. These solutions were used in the treated-group. In a non-treated group, a solution for hydroponics obtained by adding a Hoagland solution for hydroponics at ¼ concentration to a 1/10,000 volume of DMSO was used. The rice seeds were immersed in an aqueous solution of 1% sodium hypochlorite for 10 minutes, followed by 70% ethanol solution to sterilize their surfaces. After that, the seeds were washed with distilled water. The sterilized seeds were immersed in each solution for hydroponics containing the test compound at 1 ppm, and incubated at a temperature of 28° C. for 3 days under dark conditions to stimulate the germination of the seeds. Then, 30 ml of each solution for hydroponics containing the test compound at 1 ppm was dispensed into a plastic tube (20 mm in diameter×113 mm in height) covered with a cardboard on the lateral surface for blocking a light. A float made of a styrene board and a vinyl mesh was placed on the water surface of each solution for hydroponics, and the rice seeds obtained after the stimulation of germination were placed on the float. The seeds were cultivated for 3 days under the conditions of an illuminance of 4,000 lux at the top of the tube, a temperature of 26° C., a humidity of 50%, and a day length of 16 hours. The root length of the rice seedlings obtained after the cultivation was measured by using WinRHIZO system (manufactured by REGENT INSTRUMENTS). The average value of the root length in the treated group was calculated from the measurement values of 4 or 5 individuals. As a result, the root length in the treated group, wherein the plants were treated with the present compound 1, 2, 3 or 4 (at a concentration of 1 ppm in each case), was much longer than that in the non-treated group.

Wheat (cultivar: Apogee) = experiment: Test Example 10: reduction of high-temperature stress by spraying treatment of wheat; conditions: spray solution 1 ppm, high-temperature stress 36° C./32° C. 7 days, 90 days after the stress treatment
Method: Evaluation Test for Reduction of High-Temperature Stress by Spraying Treatment of Wheat
Five wheat seeds were sown in the culture soil (AISAI) in each plastic pot and cultivated for 28 days in an artificial weather control room under the conditions of a temperature of 18° C. in daytime/15° C. in night, and an illuminance of 7,000 lux. Before the stress test, 3 individuals per pot were removed.
To 0.5 mg of the present compound 1 were added 120 mg of a mixture (weight ratio 1:1) of white carbon and ammonium polyoxyethylene alkyl ether sulfate and 300 μl of water. The mixture was finely ground by a wet grinding method to obtain a flowable formulation of the present compound 1. This flowable formulation was diluted with 500 ml of water. The mixture was diluted with RINO (manufactured by NIHON NOHYAKU CO., LTD) as a spreading agent to 5,000-fold dilution to obtain a spray solution containing 1 ppm of the present compound 1. […]
After the high-temperature stress treatment, the plants were cultivated in an artificial weather control room under the conditions of a temperature of 18° C. in daytime/15° C. in night, and a illuminance of 7,000 lux. Then, 90 days after the high-temperature stress treatment, the number and the weight of seeds in ears of the tested plants in 7 or 8 pots were measured, and the average values of the number and the weight of seeds per one ear were calculated. […]

In the case of `COC(=O)c1cc2cc(C(F)(F)F)ccc2s1` [compound 1], the “fresh weight of the overground part of plants vs non-treated group” value [1] is reported as “much heavier”, the “root length of the rice seedlings vs non-treated group” value [2] is reported as “much longer” and the “number of seeds per one ear vs non-treated group” value (Wheat (cultivar: Apogee)) is reported as “much larger”. The “weight of seeds per one ear vs non-treated group” value (Wheat (cultivar: Apogee)) was “much larger”.
